# “And” between values parts separate entries of the source, which are not always exact repeats. Equal entries are not always repeated.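 Compound exposure: 48 hours, 5 concentrations, 96-well plates. At the GI50, growth is halved. TGI is the concentration that stops growth completely.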
# How the values were obtained:
# Assay in all cases: NCI-60 cell line screen, 48 h
# SF-539 CNS = system: SF-539 CNS
# NCI/ADR-RES ovarian = system: NCI/ADR-RES ovarian
# COLO 205 colon = system: COLO 205 colon
# NCI-H522 lung = system: NCI-H522 lung
# HS 578T breast = system: HS 578T breast
# SK-OV-3 ovarian = system: SK-OV-3 ovarian
# HL-60(TB) leukemia = system: HL-60(TB) leukemia
# M14 melanoma = system: M14 melanoma
# A549 NSCLC = system: A549 NSCLC
# 786-0 renal = system: 786-0 renal
Structure (SMILES),TGI (SF-539 CNS),TGI (NCI/ADR-RES ovarian) [µM],TGI (COLO 205 colon),TGI (NCI-H522 lung),TGI (HS 578T breast) [µM],TGI (SK-OV-3 ovarian) [µM],TGI (HL-60(TB) leukemia),TGI (M14 melanoma),TGI (A549 NSCLC) [µM],TGI (786-0 renal),GI50 (SF-539 CNS),GI50 (NCI/ADR-RES ovarian),GI50 (COLO 205 colon),GI50 (NCI-H522 lung),GI50 (HS 578T breast),GI50 (SK-OV-3 ovarian),GI50 (HL-60(TB) leukemia),GI50 (M14 melanoma),GI50 (A549 NSCLC),GI50 (786-0 renal)
CC(C)OC(=O)NNc1c(Cl)cc(Cl)cc1Cl,> 100 µM,> 100,> 100 µM,95.4 µM,> 100,> 100,> 100 µM,> 100 µM,> 100,> 100 µM,,,,,,,,,,
O=C(Nc1ccc(Br)cc1)c1cc(Br)ccc1O,13 µM and 10.1 µM,8.28,3.1 µM and 3.25 µM,4.81 µM and 22.2 µM,2.94,,4.54 µM and 3.8 µM,7.07 µM and 18.2 µM,> 100,2.84 µM and 4.74 µM,0.647 µM and 0.7 µM,0.523 µM and 1.16 µM,1.66 µM and 1.71 µM,0.263 µM and 0.854 µM,0.302 µM and 0.455 µM,0.747 µM and 1.8 µM,0.408 µM and 1.12 µM,1 µM and 2.13 µM,1.09 µM and 2.5 µM,0.504 µM and 1.4 µM
CC12CC(Br)(Br)C(=O)C3C1CCCC32,23 µM,6.8,5.16 µM,7.84 µM,45.2,30.8,9.33 µM,10.1 µM,36.5,9.32 µM,,,,,,,,,,
Cc1ccc(S(=O)(=O)NC(=O)Nc2ncn[nH]2)cc1,> 100 µM,> 100,> 100 µM,> 100 µM,> 100,> 100,> 100 µM,> 100 µM,> 100,> 100 µM,,,,,,,,,,
O=C(Nc1cccc2[nH]c(C(F)(F)F)nc12)c1ccc(Br)cc1F,11.6 µM,12.2,6.33 µM,8.26 µM,22.8,9.27,16 µM,14.5 µM,13.3,15.1 µM,3.26 µM,3.35 µM,2.63 µM,2.55 µM,3.54 µM,2.64 µM,3.05 µM,3.83 µM,3.27 µM,4.05 µM
C(#Cc1ccccc1C#Cc1cnccn1)c1cnccn1,> 100 µM,> 75.8,> 100 µM,> 61.7 µM,> 100,> 100,22.5 µM,48.9 µM,> 86.3,> 100 µM,27.8 µM,23.2 µM,54.8 µM,> 39.2 µM,34.9 µM,56 µM,9.32 µM,19.3 µM,34.5 µM,30.5 µM
Cc1nc2ccccc2c(/C=C/c2ccc(F)cc2)c1C(=O)/C=C/c1ccccc1,3.57 µM,7.48,,5.79 µM,> 100,> 100,6.93 µM,9.26 µM,10.3,4.36 µM,1.81 µM,2.61 µM,,2 µM,5.15 µM,4.72 µM,2.55 µM,2.87 µM,2.88 µM,2.03 µM
COc1cccc(/C=C2\COc3ccc(O)c(O)c3C2=O)c1OC,4.77 µM,97.2,8.38 µM,0.473 µM,31.5,21,> 100 µM,9.3 µM,14.2,5.62 µM,2.07 µM,3.48 µM,3.01 µM,0.19 µM,3.99 µM,7.18 µM,1.04 µM,2.56 µM,2.58 µM,1.89 µM
